Test results published in the RepoRT retention time repository (doi:10.1021/ac300829f).

assay: RP, Thermo Scientific Hypersil GOLD, 150 × 2.1 mm, 1.9 µm, 0.5 mL/min, estimated dead time 0.66 min; A: water + 0.1% formic acid, pH 3; B: acetonitrile + 0.1% formic acid, pH 3; gradient (min/%B) 0/0 2/0 13/100 15.5/100 19/0; settings: stereoisomer not certain

Row | LC retention time [min] | SMILES
1 | 4.6 | CC(=O)Nc1ccn(C2OC(CO)C(O)C2O)c(=O)n1 (centres undefined) [N4-acetylcytidine]
2 | 7.6 | CCOC(=O)c1ccccc1C(=O)O [monoethyl phthalate]
3 | 0.9 | C[N+](C)(C)[O-] [trimethylamine oxide]
4 | 0.8 | NCCc1cnc[nH]1 [histamine]
5 | 1.1 | NC(CCCC(=O)O)C(=O)O (centres undefined) [2-aminoadipic acid]
6 | 4.8 | CN(C)c1nc2c(ncn2C2OC(CO)C(O)C2O)c(=O)[nH]1 (centres undefined) [N,N-dimethylguanosine]
7 | 4.1 | CC(C)C(=O)NCC(=O)O [N-isobutyrylglycine]
8 | 5.5 | O=C(C=Cc1ccc(O)c(O)c1)OC1CC(O)(C(=O)O)CC(O)C1O (centres undefined) [chlorogenic acid]
9 | 1.1 | Nc1ccc(O)cc1 [4-aminophenol]
10 | 5.2 | O=C(O)c1cc(=O)c2cccc(O)c2[nH]1 [xanthurenic acid]
11 | 0.8 | N[C@@H](Cc1c[nH]c2ccccc12)C(=O)O [L-tryptophan]
12 | 1.1 | CN1C(=O)C(O)CC1c1cccnc1 (stereo not drawn) [trans-3-hydroxycotinine]
13 | 0.9 | OCC1OC(O)C(O)C(O)C1O (centres undefined) [hexose]
14 | 4.3 | O=c1[nH]c(=O)c2ncn(C3OC(CO)C(O)C3O)c2[nH]1 (centres undefined) [xanthosine]
15 | 5.8 | OCc1ccccc1O [2-hydroxybenzyl alcohol]
16 | 1.04 | O=C(O)CC(=O)O [malonic acid]
17 | 0.8 | NCCCCNCCCN [spermidine]
18 | 1 | Cc1cnc(=O)[nH]c1N [5-methylcytosine]
19 | 4.8 | O=C(O)CC(Nc1ncnc2c1ncn2C1OC(CO)C(O)C1O)C(=O)O (centres undefined) [succinyladenosine]
20 | 6.6 | CC(=O)NC(Cc1ccccc1)C(=O)O (centres undefined) [N-acetylphenylalanine]
21 | 5.2 | CC=C(C)C(=O)NCC(=O)O [tiglylglycine]
22 | 1.1 | CC(=O)NCCCCN [N-acetylputrescine]
23 | 0.9 | CC(=O)NCCCNCCCCN [N1-acetylspermidine]
24 | 1.1 | CSCC(O)C(O)C(O)C=O (centres undefined) [5-methylthioribose]

Row | LC retention time [min] | SMILES
25 | 4.6 | CCC(C)(O)C(=O)O (centres undefined) [2-hydroxy-2-methylbutyric acid (2-hydroxyisovaleric acid)]
26 | 6.3 | O=C(OC1OC(C(=O)O)C(O)C(O)C1O)c1c[nH]c2ccccc12 (centres undefined) [3-indole carboxylic acid glucuronide]
27 | 5.7 | O=C(O)Cc1c[nH]c2ccc(O)cc12 [5-hydroxyindoleacetic acid]
28 | 1.1 | CC(=O)NCCC(=O)NC(Cc1cnc[nH]1)C(=O)O (centres undefined) [N-acetylcarnosine]
29 | 0.9 | NC(CO)C(=O)O (centres undefined) [serine]
30 | 5.6 | Cn1c(=O)c2c(ncn2C)n(C)c1=O [caffeine]
31 | 1.1 | NC(=O)c1cccnc1 [nicotinamide]
32 | 6.3 | O=C(O)CNC(=O)C1=CCCCC1 [tetrahydrohippuric acid]
33 | 7.6 | O=C(O)CCCCCCCCC(=O)O [sebacic acid]
34 | 5.3 | C[N+](C)(C)CC(CC(=O)[O-])OC(=O)CCCCC(=O)O (centres undefined) [adipoylcarnitine]
35 | 5.8 | O=C(O)CNC(=O)c1ccccc1 [hippuric acid]
36 | 1.1 | O=c1[nH]cnc2nc[nH]c12 [hypoxanthine]
37 | 0.9 | O=C(O)C(O)C(O)C(O)C(O)CO (centres undefined) [gluconic acid]
38 | 0.9 | NC(=O)CCC(N)C(=O)O (centres undefined) [glutamine]
39 | 5.1 | OCc1cccc(O)c1 [3-hydroxybenzyl alcohol]
40 | 6.5 | O=C(O)CNC(=O)c1ccccc1O [o-hydroxyhippuric acid]
41 | 0.8 | NC(Cc1cnc[nH]1)C(=O)O (centres undefined) [histidine]
42 | 1.1 | O=C(O)c1cccnc1 [nicotinic acid]
43 | 6.7 | CCC(CCCCCC(=O)O)C(=O)O (centres undefined) [2-ethylsuberic acid]
44 | 5.8 | CC(=O)NCCc1c[nH]c2ccc(O)cc12 [N-acetyl-5-hydroxytryptamine (N-acetyl-serotonin)]
45 | 0.9 | NCCS(=O)(=O)O [taurine]
46 | 6.1 | O=C(O)CNC(=O)c1cccc(O)c1 [m-hydroxyhippuric acid]
47 | 1.1 | Nc1ccnc(=O)[nH]1 [cytosine]
48 | 6.1 | CCCCCCCC(C(=O)O)C(=O)O [heptylmalonic acid]

Row | LC retention time [min] | SMILES
49 | 0.9 | NC(N)=NCC(=O)O [guanidoacetic acid]
50 | 4.7 | Cn1c(=O)c2[nH]c(=O)[nH]c2n(C)c1=O [1,3-dimethyluric acid]
51 | 1.1 | CN1CCCC1c1cccnc1 (centres undefined) [nicotine]
52 | 4.2 | CC(C)(O)CC(=O)O [3-hydroxy-3-methylbutyric acid (3-hydroxyisovaleric acid)]
53 | 1.1 | NC(Cc1ccc(O)cc1)C(=O)O (centres undefined) [tyrosine]
54 | 4.4 | NC(Cc1ccccc1)C(=O)O (centres undefined) [phenylalanine]
55 | 1.8 | CC(=O)NC(C)C(=O)O (centres undefined) [acetylalanine]
56 | 0.9 | NC(N)=NCCCC(N)C(=O)O (centres undefined) [arginine]
57 | 1.1 | Nc1ncnc2c1ncn2C1OC(CO)C(O)C1O (centres undefined) [adenosine]
58 | 5.7 | CC(C)CC(=O)C(=O)O [4-methyl-2-oxovaleric acid (ketoleucine)]
59 | 6.3 | COC(=O)CCCCC(=O)O [mono-methyl-adipate]
60 | 7 | O=C(O)CNC(=O)C=Cc1ccccc1 [cinnamoylglycine]
61 | 1.1 | O=C(O)C1CCCN1 (centres undefined) [proline]
62 | 9.6 | CC12CCC(=O)C=C1CCC1C2CCC2(C)C(C(=O)CO)CCC12 (centres undefined) [deoxycorticosterone]
63 | 5.7 | Cc1cc2nc3c(=O)[nH]c(=O)nc-3n(CC(O)C(O)C(O)CO)c2cc1C (centres undefined) [riboflavin]
64 | 5 | Cn1c(=O)[nH]c2[nH]c(=O)n(C)c2c1=O [1,7-dimethyluric acid]
65 | 1.1 | CSCCC(N)C(=O)O (centres undefined) [methionine]
66 | 1.2 | O=c1cc[nH]c(=O)[nH]1 [uracil]
67 | 0.9 | CN1CC(=O)NC1=N [creatinine]
68 | 1.1 | Nc1nc2nc[nH]c2c(=O)[nH]1 [guanine]
69 | 12 | CCCCCCCCC=CCCCCCCCC(=O)OCC(O)COP(=O)([O-])OCC[N+](C)(C)C (centres undefined) [1-oleoylglycerophosphocholine LysoPC(18:1)]
70 | 6 | CC(C)(CCC(=O)O)C(=O)O [2,2-dimethylglutaricacid]
71 | 4.9 | CC(=O)Nc1ccc(O)cc1 [acetaminophen]

Row | SMILES | LC retention time [min]
72 | CCCCCC=CCC=CCCCCCCCC(=O)OCC(O)COP(=O)([O-])OCC[N+](C)(C)C (centres undefined) [1-linoleoylglycerophosphocholine GPCho(18:2)] | 11.2
73 | CC12CCC(=O)C=C1CCC1C2CCC2(C)C(OC3OC(C(=O)O)C(O)C(O)C3O)CCC12 (centres undefined) [testosterone glucuronide] | 7.9
74 | NCCc1c[nH]c2ccccc12 [tryptamine] | 5.7
